Biological target: human DGAT2 (hDGAT2) (Homo sapiens (Human), UniProt Q96PD7)
Experiment: DGAT2 Enzymatic Activity Assay
Assay type: biochemical
Settings: hDGAT2 Sf-9 membrane prep; 13C18-triolein product by LC/MS/MS; 25 μM diolein, 5 μM 13C oleoyl-CoA
How it was run: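 Enzyme source was membrane fractions from Sf-9 cells infected with untagged hDGAT2 baculovirus. Reactions ran at room temperature, and product 13C18-triolein was quantified by LC/MS/MS against a 13C21-triolein internal standard. % inhibition was normalised to high and low controls, and IC50 derived from it.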

Sequence of human DGAT2 (hDGAT2) (Q96PD7 whole entry): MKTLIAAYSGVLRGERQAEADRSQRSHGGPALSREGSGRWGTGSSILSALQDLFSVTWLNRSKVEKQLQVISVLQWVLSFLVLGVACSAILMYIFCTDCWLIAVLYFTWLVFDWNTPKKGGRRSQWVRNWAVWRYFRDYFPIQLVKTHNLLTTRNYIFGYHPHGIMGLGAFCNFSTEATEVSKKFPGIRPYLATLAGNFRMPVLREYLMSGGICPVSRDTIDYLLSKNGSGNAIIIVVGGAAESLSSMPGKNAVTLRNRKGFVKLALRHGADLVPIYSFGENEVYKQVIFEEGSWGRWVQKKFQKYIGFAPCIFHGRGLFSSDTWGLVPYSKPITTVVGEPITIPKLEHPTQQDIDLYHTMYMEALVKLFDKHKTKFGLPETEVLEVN

Row | IC50 [nM] | SMILES
1 | 30.8 | CC(n1nc(-c2cc(OC(F)F)ccc2F)c2c1C[C@H](C(=O)NC1(C)CS(=O)(=O)C1)CC2)C(C)(C)O (single isomer, unassigned) [Example 110a]
2 | 24.3 | CC(C)n1nc(-c2cc(OC(F)F)ccc2F)c2c1CC(C(=O)N[C@]1(C)CCS(=O)(=O)C1)CO2 (stereo partly drawn) [Example 123, 3-(5-(difluoromethoxy)-2-fluorophenyl)-1-isopropyl-N-((R)-3-methyl-1,1-dioxidotetrahydrothiophen-3-yl)-1,5,6,7-tetrahydropyrano[3,2-c]pyrazole-6-carboxamide]
3 | 3.9 | CC(n1nc(-c2cc(OCC(F)(F)F)ncc2F)c2c1C[C@H](C(=O)NC1(C)CCS(=O)(=O)CC1)CC2)C(C)(C)O (single isomer, unassigned) [Example 107a]
4 | 2.5 | CC(C1CC1)n1nc(-c2cc(OC(F)F)ccc2F)c2c1C[C@H](C(=O)NC1(C)CS(=O)(=O)C1)CC2 (single isomer, unassigned) [Example 58b]
5 | > 10000 | CC(C)n1nc(-c2cncc(OC(F)F)c2)c2c1C[C@H](C(=O)N[C@@H](C)CN1CCO[C@H](C)C1)CC2 [Example 68, (R)-3-(5-(difluoromethoxy)pyridin-3-yl)-1-isopropyl-N-((S)-1-((R)-2-methylmorpholino)propan-2-yl)-4,5,6,7-tetrahydro-1H-indazole-6-carboxamide]
6 | 99.9 | CC1(NC(=O)[C@@H]2CCc3c(-c4cc(OC(F)F)ccc4F)nn(C4CCCC4O)c3C2)CS(=O)(=O)C1 (single isomer, unassigned) [Example 114c]
7 | 22.8 | CC1(NC(=O)[C@@H]2CCc3c(-c4cc(OC(F)F)ccc4F)nn(C4CCC4)c3C2)CS(=O)(=O)C1 [Example 57, (R)-1-cyclobutyl-3-(5-(difluoromethoxy)-2-fluorophenyl)-N-(3-methyl-1,1-dioxidothietan-3-yl)-4,5,6,7-tetrahydro-1H-indazole-6-carboxamide]
8 | 60.1 | CC(C)n1nc(-c2cc(OC(F)F)ccc2F)c2c1C[C@H](C(=O)N[C@]1(C)CCS(=O)(=O)C1)CC2 [Example 29, (R)-3-(5-(difluoromethoxy)-2-fluorophenyl)-1-isopropyl-N-((R)-3-methyl-1,1-dioxidotetrahydrothiophen-3-yl)-4,5,6,7-tetrahydro-1H-indazole-6-carboxamide]
9 | 43.8 | CC(C)n1nc(-c2cc(OC(F)F)ncc2F)c2c1C[C@H](C(=O)NC1(C)CCS(=O)(=O)CC1)CC2 [Example 21, (R)-3-(2-(difluoromethoxy)-5-fluoropyridin-4-yl)-1-isopropyl-N-(4-methyl-1,1-dioxidotetrahydro-2H-thiopyran-4-yl)-4,5,6,7-tetrahydro-1H-indazole-6-carboxamide]
10 | 129 | CC1(NC(=O)[C@@H]2CCc3c(-c4cc(OC(F)F)ccc4F)nn(C4CCCC4O)c3C2)CS(=O)(=O)C1 (single isomer, unassigned) [Example 114b]
11 | 169 | CC1(NC(=O)[C@@H]2CCc3c(-c4cccc(OC(F)F)c4)nn(C4CCOCC4)c3C2)CS(=O)(=O)C1 [Example 23, (R)-3-(3-(difluoromethoxy)phenyl)-N-(3-methyl-1,1-dioxidothietan-3-yl)-1-(tetrahydro-2H-pyran-4-yl)-4,5,6,7-tetrahydro-1H-indazole-6-carboxamide]
12 | 118 | CC(C)n1nc(-c2cncc(OC(F)(F)C(F)F)c2)c2c1C[C@H](C(=O)N[C@@]1(C)CCS(=O)(=O)C1)CC2 [Example 105, (R)-1-isopropyl-N-((S)-3-methyl-1,1-dioxidotetrahydrothiophen-3-yl)-3-(5-(1,1,2,2-tetrafluoroethoxy)pyridin-3-yl)-4,5,6,7-tetrahydro-1H-indazole-6-carboxamide]
13 | 51 | [2H]C([2H])([2H])C([2H])([2H])Oc1cc(-c2nn(C(C)C)c3c2CC[C@@H](C(=O)NC2(C)CCS(=O)(=O)CC2)C3)c(F)cn1 [Example 50, (R)-3-(2-(ethoxy-d5)-5-fluoropyridin-4-yl)-1-isopropyl-N-(4-methyl-1,1-dioxidotetrahydro-2H-thiopyran-4-yl)-4,5,6,7-tetrahydro-1H-indazole-6-carboxamide]
14 | 320 | CC(C)n1nc(-c2cc(C3CC3)ccc2F)c2c1C[C@H](C(=O)NC1(C)CS(=O)(=O)C1)OC2 [Example 128, (R)-3-(5-cyclopropyl-2-fluorophenyl)-1-isopropyl-N-(3-methyl-1,1-dioxidothietan-3-yl)-1,4,6,7-tetrahydropyrano[4,3-c]pyrazole-6-carboxamide]
15 | 5.5 | CC(C)n1nc(-c2cc(OC(F)F)ccc2F)c2c1C[C@H](C(=O)NC1(C)CCS(=O)(=O)CC1)CC2 [Example 30, (R)-3-(5-(difluoromethoxy)-2-fluorophenyl)-1-isopropyl-N-(4-methyl-1,1-dioxidotetrahydro-2H-thiopyran-4-yl)-4,5,6,7-tetrahydro-1H-indazole-6-carboxamide]
16 | 7260 | CC(C)n1nc(-c2cccc(OC(F)F)c2)c2c1C[C@H](C(=O)N[C@@H](C)CO)CC2 [Example 65, (R)-3-(3-(difluoromethoxy)phenyl)-N-((S)-1-hydroxypropan-2-yl)-1-isopropyl-4,5,6,7-tetrahydro-1H-indazole-6-carboxamide]

Row | IC50 [nM] | SMILES
17 | 33.7 | C[C@]1(NC(=O)[C@@H]2CCc3c(-c4ccccc4Cl)nn(-c4ccc(F)cc4)c3C2)CCS(=O)(=O)C1 (single isomer, unassigned) [Example 1b]
18 | 30.1 | CC(C)n1nc(-c2cc(OC(F)F)ccc2F)c2c1C[C@H](C(=O)N[C@@]1(C)CCS(=O)(=O)C1)CC2 [Example 28, (R)-3-(5-(difluoromethoxy)-2-fluorophenyl)-1-isopropyl-N-((S)-3-methyl-1,1-dioxidotetrahydrothiophen-3-yl)-4,5,6,7-tetrahydro-1H-indazole-6-carboxamide]
19 | 243 | CC(n1nc(-c2cc(OC(F)F)ccc2F)c2c1C[C@H](C(=O)NC1(C)CS(=O)(=O)C1)CC2)C(C)(C)O (single isomer, unassigned) [Example 110b]
20 | 44.1 | CCOc1cc(-c2nn(C(C)C(C)(C)O)c3c2CC[C@@H](C(=O)N[C@@]2(C)CCS(=O)(=O)C2)C3)c(F)cn1 (single isomer, unassigned) [Example 108a]
21 | 170 | Cc1ncc(OC(F)F)cc1-c1nn(C(C)C)c2c1CC[C@@H](C(=O)NC1(C)CS(=O)(=O)C1)C2 [Example 86, (R)-3-(5-(difluoromethoxy)-2-methylpyridin-3-yl)-1-isopropyl-N-(3-methyl-1,1-dioxidothietan-3-yl)-4,5,6,7-tetrahydro-1H-indazole-6-carboxamide]
22 | > 10000 | C[C@]1(NC(=O)[C@@H]2CCc3c(-c4cccc(OC(F)F)c4)nn(C(=O)C4CCOCC4)c3C2)CCS(=O)(=O)C1 [Example 75, (R)-3-(3-(difluoromethoxy)phenyl)-N-((S)-3-methyl-1,1-dioxidotetrahydrothiophen-3-yl)-1-(tetrahydro-2H-pyran-4-carbonyl)-4,5,6,7-tetrahydro-1H-indazole-6-carboxamide]
23 | 296 | CC(C)n1nc(-c2cc(OC(F)F)cnc2C(F)F)c2c1C[C@H](C(=O)NC1(C)CCS(=O)(=O)CC1)CC2 [Example 42, (R)-3-(5-(difluoromethoxy)-2-(difluoromethyl)pyridin-3-yl)-1-isopropyl-N-(4-methyl-1,1-dioxidotetrahydro-2H-thiopyran-4-yl)-4,5,6,7-tetrahydro-1H-indazole-6-carboxamide]
24 | 158 | CCc1ccc(F)c(-c2nn(C(C)C)c3c2CC[C@@H](C(=O)NC2(C)CS(=O)(=O)C2)C3)c1 [Example 100, (R)-3-(5-ethyl-2-fluorophenyl)-1-isopropyl-N-(3-methyl-1,1-dioxidothietan-3-yl)-4,5,6,7-tetrahydro-1H-indazole-6-carboxamide]
25 | 318 | Cc1ncc(OC(F)F)cc1-c1nn(C(C)C)c2c1CC[C@@H](C(=O)NC1(C)CC(F)(F)C1)C2 [Example 89, (R)-N-(3,3-difluoro-1-methylcyclobutyl)-3-(5-(difluoromethoxy)-2-methylpyridin-3-yl)-1-isopropyl-4,5,6,7-tetrahydro-1H-indazole-6-carboxamide]
26 | > 10000 | CC(C)n1nc(-c2cccc(OCC#N)c2)c2c1C[C@H](C(=O)NC1(C)CS(=O)(=O)C1)CC2 [Example 96, (R)-3-(3-(cyanomethoxy)phenyl)-1-isopropyl-N-(3-methyl-1,1-dioxidothietan-3-yl)-4,5,6,7-tetrahydro-1H-indazole-6-carboxamide]
27 | 90.3 | CC(C(F)F)n1nc(-c2cc(OC(F)F)ccc2F)c2c1C[C@H](C(=O)NC1(C)CS(=O)(=O)C1)CC2 (single isomer, unassigned) [Example 48a]
28 | 18000 | CC(C)n1nc(-c2cccc(OC(F)F)c2)c2c1C[C@H](C(=O)NCCN1CCS(=O)(=O)CC1)CC2 [Example 70, (R)-3-(3-(difluoromethoxy)phenyl)-N-(2-(1,1-dioxidothiomorpholino)ethyl)-1-isopropyl-4,5,6,7-tetrahydro-1H-indazole-6-carboxamide]
29 | > 10000 | CC(C)n1nc(-c2cccc(C3(O)CCC3)c2)c2c1C[C@H](C(=O)NC1(C)CC(F)(F)C1)CC2 [Example 103, (R)-N-(3,3-difluoro-1-methylcyclobutyl)-3-(3-(1-hydroxycyclobutyl)phenyl)-1-isopropyl-4,5,6,7-tetrahydro-1H-indazole-6-carboxamide]
30 | > 10000 | CC(C)n1nc(-c2cccc(C3(C#N)CC3)c2)c2c1C[C@H](C(=O)NC1(C)CS(=O)(=O)C1)CC2 [Example 91, (R)-3-(3-(1-cyanocyclopropyl)phenyl)-1-isopropyl-N-(3-methyl-1,1-dioxidothietan-3-yl)-4,5,6,7-tetrahydro-1H-indazole-6-carboxamide]
31 | 7.92 | CC(C)n1nc(-c2cc(OC(F)F)ccc2Cl)c2c1C[C@H](C(=O)NC1(C)CS(=O)(=O)C1)CC2 [Example 84, (R)-3-(2-chloro-5-(difluoromethoxy)phenyl)-1-isopropyl-N-(3-methyl-1,1-dioxidothietan-3-yl)-4,5,6,7-tetrahydro-1H-indazole-6-carboxamide]

Source: patent US20240140938A1, “PREPARATION OF TETRAHYDROINDAZOLE DERIVATIVES AS NOVEL DIACYLGLYCERIDE O-ACYLTRANSFERASE 2 INHIBITORS” (MERCK SHARP & DOHME LLC, priority 2020, published 2024)
